From patent US5241087A (priority 1992, dated 1993)

System: oxynitrilase enzyme from sorghum
Test: not given
Conditions: 6 Phytochemistry 473 (1967); cited from earlier work

Row | Structure (SMILES) | specificity of sorghum oxynitrilase for dehydrocyanation of substrate
1 | N#CC(O)c1ccc(O)cc1 (stereo not drawn) [p-hydroxybenzaldehyde cyanohydrin] | appears to be specific

System: (R)-oxynitrilase
Test: Relative rate of dehydrocyanation of cyanohydrins by soluble (R)-oxynitrilase (initial rate studies, absorbance)
Assay type: biochemical
Conditions: (R)-oxynitrilase with 0.21 mM solution of cyanohydrin; relative to benzaldehyde cyanohydrin = 1.0
Experimental: The following standardized assay was utilized to measure the activity of oxynitrilase set forth in the Examples which follow. A solution of enzyme was prepared in 0.1M (pH 5.5) citrate buffer. A 3-ml sample of enzyme solution was combined with 30 microliters of 0.21M benzaldehyde cyanohydrin and the rate of increase in absorbance at 250 nm recorded. Then, the same procedure was followed with a 3-ml sample of 0.1M (pH 5.5) citrate buffer to obtain the background, non-enzymatic, reaction. The activity in units/ml was calculated by subtracting the slope of the non-enzymatic reaction from the slope of the enzymatic reaction and converting the absorbance change with time to concentration change with time using a molar extinction coefficient of 13,200 M^-1 cm^-1.
Relative rates of dehydrocyanation of different cyanohydrins subjected to the action of the soluble catalyst (R)-oxynitrilase were determined from initial rate studies. A solution of (R)-oxynitrilase was combined with a 0.21 mM solution of cyanohydrin and the rate of increase of absorbance at the wavelength corresponding to the absorption maxima was monitored as described above in connection with the measurement of catalyst activity. The measured activity was calculated using the appropriate extinction coefficient for the corresponding aldehyde.

Row | Structure (SMILES) | Relative Rate (dehydrocyanation)
2 | N#CC(O)c1ccc2c(c1)OCO2 (stereo not drawn) [Piperonal cyanohydrin] | 2.1
3 | N#CC(O)c1ccccc1 (stereo not drawn) [Benzaldehyde cyanohydrin] | 1.0
4 | N#CC(O)c1ccco1 (stereo not drawn) [Furfural cyanohydrin] | 2.5
5 | CCc1ccc(C(O)C#N)cc1 (stereo not drawn) [p-Ethylbenzaldehyde cyanohydrin] | 0.13
6 | Cc1ccc(C(O)C#N)cc1 (stereo not drawn) [p-Tolualdehyde cyanohydrin] | 0.45
7 | COc1cccc(C(O)C#N)c1 (stereo not drawn) [m-Anisaldehyde cyanohydrin] | 0.19
8 | CC=CC(O)C#N (stereo not drawn) [Crotonaldehyde cyanohydrin] | 0.90
9 | N#CC(O)C=Cc1ccccc1 (stereo not drawn) [Cinnamaldehyde cyanohydrin] | 0.05
10 | COc1ccc(C(O)C#N)cc1 (stereo not drawn) [p-Anisaldehyde cyanohydrin] | 0.17
11 | Cc1ccc(C(O)C#N)o1 (stereo not drawn) [5-Methylfurfural cyanohydrin] | 2.8

System: not listed separately
Test: Permeability through supported-gas membrane (microporous polypropylene hollow fibers, system of FIG. 1)
Conditions: supported-gas membrane system of FIG. 1

Row | Structure (SMILES) | average permeability relative to the permeability of benzaldehyde cyanohydrin
12 | O=Cc1ccccc1 [benzaldehyde] | roughly 700 times
